± gives the expanded uncertainty stated by the source.
Details: Liquid, Ebulliometric method (Recirculating still)

| vapor or sublimation pressure (373.15 K) | vapor or sublimation pressure (391.03 K) | SMILES |
| --- | --- | --- |
| 101.32 ± 0.46 kPa | – | O [water] |
| – | 101.32 ± 0.46 kPa | CC(=O)O [acetic acid] |

From the NIST ThermoML archive (doi:10.1021/je400282h)
